For assay [1], the system named is Staphylococcus aureus ATCC25923. The experiment in a line: Antimicrobial MIC, agar dilution. A general note: In agar dilution the substance is mixed into plates at graded concentrations.
In assay [2] the test system is Streptococcus pyogenes ATCC19615. Briefly: Antimicrobial MIC, agar dilution.
Assay [3] relates to A-549 (lung) carcinoma cell line. Briefly: Anti-tumor properties, MTT. The assay is classed as cell-based. Conditions: Homo sapiens, A549.
Assay [4] concerns Salmonella typhi ATCC19430. The experiment in a line: Antimicrobial MIC, agar dilution. The assay is classed as cell-based. As to conditions: Salmonella enterica, read-out: Minimum inhibitory concentration (MIC).
For assay [5], the system named is lipopolysaccharide-stimulated peritoneal macrophages. Briefly: Production of nitric oxide by lipopolysaccharide-stimulated peritoneal macrophages (Greiss reagent). On the set-up: Potency (%): % inhibition of nitric oxide production relative to lipopolysaccharide-stimulated macrophages: concentration or dose not given beside the values. The assay is classed as cell-based. Conditions: LPS-stimulated peritoneal macrophages; for Nitric oxide (nitrite) concentration, μM (average ± SD): 24 h, nitrite by Greiss reagent. The method in brief: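 Macrophages in nitrite-free medium with 0.1% BSA were stimulated with LPS at 0.5–10 ng/ml, some wells also receiving epinephrine, norepinephrine or dopamine at […], for 24 h at 37° C. Nitrite in supernatants was measured with Greiss reagent, 15 min at room temperature, absorbance 532 nm.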

Assay [6] deals with Candida albicans (local isolate). The experiment in a line: Antimicrobial MIC, agar dilution. As to conditions: Candida albicans, read-out: Minimum inhibitory concentration (MIC).
Assay [7] has as its system MCF7 (breast) carcinoma cell line. Briefly: Anti-tumor properties, MTT. The assay is classed as cell-based. As to conditions: Homo sapiens, MCF7; read-out: IC50 (μM) MCF7 (breast). The gist of the method: (§1)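 Cells seeded at 10×10^3 per well for 24 h, then exposed to compound in serum-free medium (final up to 100 μM, 0.5% DMSO vehicle) for 72 h in triplicate. Viability by MTT reduction (4 h, SDS solubilised), absorbance 595 nm/ref 620 nm; IC50 from survival curves.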

The subject of assay [8] is HCT116 (colon) carcinoma cell line. The experiment in a line: Anti-tumor properties, MTT. Conditions: Homo sapiens, HCT-116; read-out: IC50 (μM) HCT116 (colon). The assay is classed as cell-based. The gist of the method: as §1
The subject of assay [9] is HepG2 (hepatocellular) carcinoma cell line. The experiment in a line: Anti-tumor properties, MTT. The assay is classed as cell-based. Conditions: Homo sapiens, HepG2; read-out: IC50 (μM) HepG2 (liver). The gist of the method:
as §1

In assay [10] the test system is PHA-stimulated splenocytes. Briefly: Proliferative response of PHA-stimulated splenocytes (MTT assay). The assay is classed as cell-based. Conditions: PHA 5 μg/ml, 72 hr; compounds at 5 μM (method says 10 μM); ratio of O.D. versus vehicle control. The method in brief:
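Freshly prepared splenocytes (1×10^6 cells/well) were cultured for 72 h at 37° C with compound at 10 μM final, with or without PHA (5 μg/ml). Viability was read by MTT (4 h), with absorbance at 570 nm against 690 nm reference. Stimulation index is the OD ratio of treated versus vehicle cultures.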
On the technique in general: Formazan colour is commonly taken as a measure of viable cells.

For assay [11], the system named is Pseudomonas aeruginosa ATCC27853. The experiment in a line: Antimicrobial MIC, agar dilution.
For assay [12], the system named is PC3 (prostate) carcinoma cell line. Briefly: Anti-tumor properties, MTT. The assay is classed as cell-based. Conditions: Homo sapiens.
Setting [13] is: ATCC25923, 18 h, read-out: Minimum inhibitory concentration (MIC).
[14] abbreviates: ATCC25923, read-out: Minimum inhibitory concentration (MIC).
The mark [15] stands for this setting: ATCC19615, 18 h, read-out: Minimum inhibitory concentration (MIC).
Setting [16] is: ATCC19615, read-out: Minimum inhibitory concentration (MIC).
[17] abbreviates: ATCC27853, 18 h, read-out: Minimum inhibitory concentration (MIC).
Setting [18] is: ATCC27853, read-out: Minimum inhibitory concentration (MIC).

As a reminder, the IC50 is the concentration that gives 50% inhibition.

Each structure is given as a SMILES string. Read-outs that look alike come from different tables or passages of the source.

`COc1cc(/C=C/C(=O)CC(=O)/C=C/c2ccc(OC(=O)[C@H](CCC(N)=O)NC(=O)OC(C)(C)C)c(OC)c2)ccc1OC(=O)[C@H](CCC(N)=O)NC(=O)OC(C)(C)C` [Boc-L-Gln-Cur, ((1E,6E)-3,5-dioxohepta-1,6-diene-1,7-diyl)bis(2-methoxy-4,1-phenylene) (2S,2′S)-bis(5-amino-2-((tert-butoxycarbonyl)amino)-5-oxopentanoate)]: the MIC was determined as 0.125 µg/mL in assay [1] (setting [13]); 0.152 µM in [1] (setting [14]); 0.25 µg/mL in assay [2] (setting [15]); 0.303 µM in assay [2] (setting [16]); 0.125 µg/mL in [4] (18 h); 0.152 µM in [4]. For the same compound, the MIC in assay [6] (18 h) worked out at 2 µg/mL; in assay [6] it was 2.42 µM; in assay [11] (setting [17]) it was 1 µg/mL; in assay [11] (setting [18]), 1.21 µM. In addition, the half-inhibitory concentration (IC50) in assay [3] was 30.9 µM; in assay [7], 8.48 µM; in assay [8], over 100 µM; in [9], 70.6 µM; in assay [12], 39.1 µM. The “Potency (%): % inhibition of nitric oxide production relative to lipopolysaccharide-stimulated macrophages” value in [5] turned out to be 22.29%. In addition, in [5], the “Nitric oxide (nitrite) concentration, μM (average ± SD)” value (“Nitric oxide … (average ± SD)” for short) is 21.22 ± 1.50 µM. For the same compound, the “Stimulation Index (average ± SD)” value in [10] was 2.14 ± 0.23.
For `COc1cc(/C=C/C(=O)CC(=O)/C=C/c2ccc(OC(=O)[C@@H](NC(=O)OC(C)(C)C)C(C)C)c(OC)c2)ccc1OC(=O)[C@@H](NC(=O)OC(C)(C)C)C(C)C` [Boc-L-Val-Cur, ((1E,6E)-3,5-dioxohepta-1,6-diene-1,7-diyl)bis(2-methoxy-4,1-phenylene) (2S,2′S)-bis(2-((tert-butoxycarbonyl)amino)-3-methylbutanoate)], the MIC in [1] (setting [13]) came out at 0.25 µg/mL; in assay [1] (setting [14]), 0.326 µM; in assay [2] (setting [15]) it was 2 µg/mL; in assay [2] (setting [16]) it was 2.61 µM; in [4] (18 h), 0.25 µg/mL; in [4], 0.326 µM. In addition, the MIC stood at 1 µg/mL in [6] (18 h), 1.3 µM in [6], 2 µg/mL in [11] (setting [17]) and 2.61 µM in [11] (setting [18]). Also, the half-maximal inhibitory concentration (IC50) in assay [3] is over 100 µM; in assay [7], at least 100 µM; in assay [8] it was over 100 µM; in assay [9], over 100 µM; in assay [12], over 100 µM. Moreover, the “Potency (%): % inhibition of nitric oxide production relative to lipopolysaccharide-stimulated macrophages” value in assay [5] worked out at 29.35%. Further, the “Nitric oxide … (average ± SD)” value in assay [5] was 19.29 ± 0.39 µM. Also, the “Stimulation Index (average ± SD)” value in [10] stood at 1.84 ± 0.06.
Consider `COc1cc(/C=C/C(=O)CC(=O)/C=C/c2ccc(OC(=O)CCNC(=O)OC(C)(C)C)c(OC)c2)ccc1OC(=O)CCNC(=O)OC(C)(C)C` [Boc-β-Ala-Cur, ((1E,6E)-3,5-dioxohepta-1,6-diene-1,7-diyl)bis(2-methoxy-4,1-phenylene) bis(3-((tert-butoxycarbonyl)amino)propanoate)], for which the MIC in assay [1] (setting [13]) stood at 0.25 µg/mL; in [1] (setting [14]), 0.352 µM; in assay [2] (setting [15]), 0.25 µg/mL; in assay [2] (setting [16]), 0.352 µM; in assay [4] (18 h), 0.5 µg/mL; in [4], 0.703 µM. The MIC in [6] (18 h) was found to be 0.5 µg/mL; in [6], 0.703 µM; in assay [11] (setting [17]), 0.25 µg/mL; in assay [11] (setting [18]) it was 0.352 µM. For the same compound, the IC50 in assay [3] was over 100 µM; in assay [7], 13.2 µM; in [8] it was over 100 µM; in assay [9] it was over 100 µM; in assay [12], over 100 µM. For the same compound, the “Potency (%): % inhibition of nitric oxide production relative to lipopolysaccharide-stimulated macrophages” value in assay [5] was 32.81%. Moreover, the “Nitric oxide … (average ± SD)” value in [5] was determined as 18.35 ± 1.61 µM. In addition, the “Stimulation Index (average ± SD)” value in [10] was 1.70 ± 0.24.
With `COc1cc(/C=C/C(=O)CC(=O)/C=C/c2ccc(OC(=O)[C@@H](N)C(C)C)c(OC)c2)ccc1OC(=O)[C@@H](N)C(C)C.Cl.Cl` [HCl-L-Val-Cur, (2S,2′S)-1,1′-((((1E,6E)-3,5-dioxohepta-1,6-diene-1,7-diyl)bis(2-methoxy-4,1-phenylene))bis(oxy))bis(3-methyl-1-oxobutan-2-aminium) chloride], the MIC came to 0.25 µg/mL in [1] (setting [13]); 0.391 µM in assay [1] (setting [14]); 0.125 µg/mL in assay [2] (setting [15]); 0.195 µM in assay [2] (setting [16]); 0.125 µg/mL in assay [4] (18 h); 0.195 µM in assay [4]. Also, the MIC amounted to 0.125 µg/mL in [6] (18 h), 0.195 µM in assay [6], 0.25 µg/mL in [11] (setting [17]) and 0.391 µM in assay [11] (setting [18]). Also, the IC50 stood at 20.4 µM in assay [3]; 10.4 µM in assay [7]; 66.5 µM in [8]; 39.1 µM in assay [9]; 34.6 µM in assay [12]. The “Potency (%): % inhibition of nitric oxide production relative to lipopolysaccharide-stimulated macrophages” value in [5] is listed as 24.37%. For the same compound, the “Nitric oxide … (average ± SD)” value in [5] was 20.65 ± 0.99 µM. The “Stimulation Index (average ± SD)” value in assay [10] came out at 2.05 ± 0.15.
As to `COc1cc(/C=C/C(=O)CC(=O)/C=C/c2ccc(OC(=O)CNC(=O)OC(C)(C)C)c(OC)c2)ccc1OC(=O)CNC(=O)OC(C)(C)C` [Boc-Gly-Cur, ((1E,6E)-3,5-dioxohepta-1,6-diene-1,7-diyl)bis(2-methoxy-4,1-phenylene) bis(2-((tert-butoxycarbonyl)amino)acetate)], the MIC is 0.25 µg/mL in [1] (setting [13]); 0.366 µM in assay [1] (setting [14]); 1 µg/mL in [2] (setting [15]); 1.47 µM in assay [2] (setting [16]); 0.125 µg/mL in assay [4] (18 h); 0.183 µM in [4]. Moreover, the MIC in assay [6] (18 h) came to 0.5 µg/mL; in assay [6], 0.732 µM; in assay [11] (setting [17]), 0.25 µg/mL; in assay [11] (setting [18]) it was 0.366 µM. Besides, the IC50 in assay [3] was 80.9 µM; in assay [7], 17.2 µM; in assay [8], over 100 µM; in assay [9] it was over 100 µM; in [12] it was over 100 µM. Besides, the “Potency (%): % inhibition of nitric oxide production relative to lipopolysaccharide-stimulated macrophages” value in assay [5] came out at 33.65%. Moreover, the “Nitric oxide … (average ± SD)” value in assay [5] was found to be 18.12 ± 1.41 µM. The “Stimulation Index (average ± SD)” value in [10] is listed as 2.11 ± 0.16.
Consider `COc1cc(/C=C/C(=O)CC(=O)/C=C/c2ccc(OC(=O)[C@H](C)NC(=O)OC(C)(C)C)c(OC)c2)ccc1OC(=O)[C@H](C)NC(=O)OC(C)(C)C` [Boc-L-Ala-Cur, ((1E,6E)-3,5-dioxohepta-1,6-diene-1,7-diyl)bis(2-methoxy-4,1-phenylene) (2S,2′S)-bis(2-((tert-butoxycarbonyl)amino)propanoate)], for which the MIC in assay [1] (setting [13]) came out at 0.125 µg/mL; in assay [1] (setting [14]), 0.176 µM; in assay [2] (setting [15]), 0.25 µg/mL; in [2] (setting [16]), 0.352 µM; in assay [4] (18 h), 0.125 µg/mL; in assay [4] it was 0.176 µM. For the same compound, the MIC in assay [6] (18 h) was 1 µg/mL; in [6] it was 1.41 µM; in [11] (setting [17]) it was 1 µg/mL; in assay [11] (setting [18]), 1.41 µM. Further, the IC50 in assay [3] was over 100 µM; in assay [7], 25.1 µM; in assay [8] it was over 100 µM; in [9] it was over 100 µM; in [12] it was over 100 µM. In assay [5], the “Potency (%): % inhibition of nitric oxide production relative to lipopolysaccharide-stimulated macrophages” value is 22.02%. Also, the “Nitric oxide … (average ± SD)” value in assay [5] was 21.30 ± 1.72 µM. Further, the “Stimulation Index (average ± SD)” value in [10] is on record as 2.71 ± 0.28.

Source of the values: patent US10660967B2, “Curcumin conjugates and methods of use thereof” (priority 2016, dated 2020).
